# In patent US20070111265A1, “Ligands for mineralocorticoid receptor (MR) and methods for screening for or designing MR ligands” (Van Andel Research Institute, priority 2005, published 2007):
# Substitutions are numbered along the chain they refer to. Values joined by “and” are separate entries in the source; they are usually repeats but may differ in a detail not shown here. Equal values may be shown once. Read-outs that look alike come from different tables or passages of the source.
# Key:
# MR L848Q = molecular target: T1, MR L848Q (Homo sapiens, UniProt P08235, L848Q); experiment: MMTV luciferase reporter assay in Cos-7 cells; type: cell-based
# T1 construct: (S843P and L848Q) within the context of the full length wild type receptor; expressed in transfected cells; host or cells: Cos-7
# T1 sequence (P08235 1-984 L848Q): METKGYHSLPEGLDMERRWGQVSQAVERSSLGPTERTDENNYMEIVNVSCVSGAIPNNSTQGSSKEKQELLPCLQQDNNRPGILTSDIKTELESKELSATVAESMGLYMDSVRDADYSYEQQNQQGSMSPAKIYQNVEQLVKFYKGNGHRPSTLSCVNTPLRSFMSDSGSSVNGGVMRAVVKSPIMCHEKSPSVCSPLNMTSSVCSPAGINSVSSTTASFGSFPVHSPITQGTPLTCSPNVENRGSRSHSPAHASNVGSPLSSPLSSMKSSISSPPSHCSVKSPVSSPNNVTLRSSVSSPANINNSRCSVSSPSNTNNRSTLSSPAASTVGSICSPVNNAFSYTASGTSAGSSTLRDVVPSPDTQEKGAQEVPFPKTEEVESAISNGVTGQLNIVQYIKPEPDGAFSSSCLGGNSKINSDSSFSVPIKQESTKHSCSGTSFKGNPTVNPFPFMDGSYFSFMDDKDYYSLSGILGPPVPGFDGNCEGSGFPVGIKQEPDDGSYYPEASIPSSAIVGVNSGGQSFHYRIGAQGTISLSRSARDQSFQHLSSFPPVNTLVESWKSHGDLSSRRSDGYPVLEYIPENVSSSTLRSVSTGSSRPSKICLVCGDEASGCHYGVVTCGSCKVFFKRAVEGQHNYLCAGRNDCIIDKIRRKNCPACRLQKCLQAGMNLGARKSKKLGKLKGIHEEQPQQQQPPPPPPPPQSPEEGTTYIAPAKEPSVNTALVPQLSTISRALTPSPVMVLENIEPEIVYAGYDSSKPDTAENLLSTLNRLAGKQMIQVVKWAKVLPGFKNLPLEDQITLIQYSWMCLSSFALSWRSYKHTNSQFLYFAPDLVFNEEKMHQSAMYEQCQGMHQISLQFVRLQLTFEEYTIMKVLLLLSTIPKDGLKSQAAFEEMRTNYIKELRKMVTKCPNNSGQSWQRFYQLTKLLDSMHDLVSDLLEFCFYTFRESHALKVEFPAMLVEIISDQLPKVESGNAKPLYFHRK
# Method: (§1) Cos-7 cells were maintained in DMEM containing 10% fetal bovine serum (FBS) and were transiently transfected using Lipofectamine 2000 (Invitrogen). […] Cells were transfected in Opti-MEM with 400 ng of MMTV-Luc reporter plasmid and 400 ng of receptor expression vector (pRS vector) encoding full-length GR and MR respectively (ATCC). […] Luciferase data were normalized to Renilla activity as an internal control.
# (§2) To validate the role of the key MR pocket residues in hormone recognition, the inventors mutated S843 and L848 to the corresponding GR residues (S843P and L848Q) within the context of the full length wild type receptor. […] We also performed reverse mutations in the full length GR receptor (P637S and Q642L) and tested them in the same MMTV reporter.
# [1] = molecular target: T2, wild type MR (full-length) (Homo sapiens, UniProt P08235); experiment: MMTV luciferase reporter assay in Cos-7 cells; type: cell-based
# T2 construct: receptor expression vector (pRS vector) encoding full-length GR and MR respectively (ATCC); host or cells: Cos-7
# T2 sequence (P08235 1-984): T1 sequence (P08235 1-984 L848Q) with Q848L
# Method: as §1, §2
# [2] = Cos-7, MMTV-Luc, read-out: EC50, activation of wild type MR
# [3] = summary of FIG. 5 dose-response, read-out: affinity to MR (shown in FIG. 5)
"EC50 (MR L848Q; Cos-7, MMTV-Luc, read-out: EC50, activation of MR L848Q) [nM]",decrease of potency by L848Q mutation (MR L848Q; versus wild type MR),potency of corticosterone relative to cortisol ([1]; wild type MR),SMILES,"EC50 [1, 2]","EC50 [1, 3] [nM]",activation of MR L848Q (MR L848Q; versus wild type MR)
~1,at least 10 fold,roughly 10 fold,C[C@]12C[C@H](O)[C@H]3[C@@H](CCC4=CC(=O)CC[C@@]43C)[C@@H]1CC[C@@H]2C(=O)CO [corticosterone],0.08 nM and < 0.1 nM,0.1 to 1,–
–,–,–,C[C@]12CCC(=O)C=C1CC[C@@H]1[C@@H]2[C@@H](O)C[C@@]2(C)[C@H]1CC[C@]2(O)C(=O)CO [cortisol],0.6 nM,0.1 to 1,not affected
